system: EV-D68 US/KY/14-18953 virus; experiment: CPE assay, EV-D68 US/KY/14-18953 in RD cells; format: cell-based, Enterovirus D68 (EV-D68); conditions: EV-D68 US/KY/14-18953, RD cells

SMILES	SI = selectivity index (CC50/EC50)
CCN(CC)CCNC(=O)c1cc(OC)nc2ccccc12 [Compound 5a, N-[2-(diethylamino)ethyl]-2-methoxyquinoline-4-carboxamide]	>4.8
CC(C)Oc1cc(C(=O)NCCN2CCOCC2)c2ccccc2n1 [Compound 8d, N-[2-(morpholin-4-yl)ethyl]-2-(propan-2-yloxy)quinoline-4-carboxamide]	>14.3
NNC(=O)c1cc(-c2ccccc2)nc2ccccc12 [Compound 10d, 2-phenylquinoline-4-carbohydrazide]	>3
N=C(N)NC(=O)c1cc(-c2ccccc2)nc2ccccc12 [Compound 10e, N-carbamimidoyl-2-phenylquinoline-4-carboxamide]	>7.2
CN(C)c1ccc(NC(=O)c2cc(-c3ccccc3)nc3ccccc23)cc1 [Compound 10f, N-[4-(dimethylamino)phenyl]-2-phenylquinoline-4-carboxamide]	>3.5

same assay, conditions: EV-D68 US/KY/14-18953, RD cells, CPE assay; read-out: EC50

SMILES	EC50 [nM]
NCCNC(=O)c1cc(-c2cccs2)nc2ccccc12 [Compound 6bl, N-(2-aminoethyl)-2-(thiophen-2-yl)quinoline-4-carboxamide]	400
CN(C)CCNC(=O)c1cc(-c2ccco2)nc2ccccc12 [Compound 6bo, N-[2-(dimethylamino)ethyl]-2-(furan-2-yl)quinoline-4-carboxamide]	1100

same assay, conditions: Enterovirus D, EVD68, RD, EV-D68 US/KY/14-18953, RD cells, CPE assay

SMILES	EC50 [nM]
CN(C)CCNC(=O)c1cc(-c2ccco2)nc2ccccc12 [Compound 6bo, N-[2-(dimethylamino)ethyl]-2-(furan-2-yl)quinoline-4-carboxamide]	< 1000

same assay, conditions: Enterovirus D, EVD68, RD, EV-D68 US/KY/14-18953, RD cells, CPE assay; read-out: EC50

SMILES	EC50 [nM]
CNCCNC(=O)c1cc(-c2ccccc2)nc2ccccc12 [Compound 6af, N-[2-(methylamino)ethyl]-2-phenylquinoline-4-carboxamide]	900

system: RD cells; experiment: Cytotoxicity, neutral red method, RD cells; conditions: RD cells, neutral red method

SMILES	CC50 [µM]
CCN(CC)CCNC(=O)c1cc(OC)nc2ccccc12 [Compound 5a, N-[2-(diethylamino)ethyl]-2-methoxyquinoline-4-carboxamide]	> 250
CCOc1cc(C(=O)NCCN(CC)CC)c2ccccc2n1 [Compound 5b, N-[2-(diethylamino)ethyl]-2-ethoxyquinoline-4-carboxamide]	165 ± 57.6
CCN(CC)CCNC(=O)c1cc(OCC(F)(F)F)nc2ccccc12 [Compound 5c, N-[2-(diethylamino)ethyl]-2-(2,2,2-trifluoroethoxy)quinoline-4-carboxamide]	33.1 ± 1.8
CCCOc1cc(C(=O)NCCN(CC)CC)c2ccccc2n1 [Compound 5d, N-[2-(diethylamino)ethyl]-2-propoxyquinoline-4-carboxamide]	46.7 ± 14.7
CCC(C)Oc1cc(C(=O)NCCN(CC)CC)c2ccccc2n1 (stereo not shown) [Compound 5f, 2-(butan-2-yloxy)-N-[2-(diethylamino)ethyl]quinoline-4-carboxamide]	15.7 ± 1.1
CCN(CC)CCNC(=O)c1cc(OCC2CC2)nc2ccccc12 [Compound 5g, 2-(cyclopropylmethoxy)-N-[2-(diethylamino)ethyl]quinoline-4-carboxamide]	38.5 ± 16.8
CCC(CC)Oc1cc(C(=O)NCCN(CC)CC)c2ccccc2n1 [Compound 5h, N-[2-(diethylamino)ethyl]-2-(pentan-3-yloxy)quinoline-4-carboxamide]	9.5 ± 1.1
CCN(CC)CCNC(=O)c1cc(OC2CCCC2)nc2ccccc12 [Compound 5i, 2-(cyclopentyloxy)-N-[2-(diethylamino)ethyl]quinoline-4-carboxamide]	11.7 ± 1.2
CCOCCOc1cc(C(=O)NCCN(CC)CC)c2ccccc2n1 [Compound 5j, N-[2-(diethylamino)ethyl]-2-(2-ethoxyethoxy)quinoline-4-carboxamide]	144 ± 40.5
CCN(CC)CCNC(=O)c1cc(OCc2ccccc2)nc2ccccc12 [Compound 5k, 2-(benzyloxy)-N-[2-(diethylamino)ethyl]quinoline-4-carboxamide]	13.5 ± 2.9
CCN(CC)CCNC(=O)c1cc(-c2ccn[nH]2)nc2ccccc12 [Compound 6a, N-[2-(diethylamino)ethyl]-2-(1H-pyrazol-5-yl)quinoline-4-carboxamide]	132 ± 53.3
CCN(CC)CCNC(=O)c1cc(-c2cnn(C)c2)nc2ccccc12 [Compound 6b, N-[2-(diethylamino)ethyl]-2-(1-methyl-1H-pyrazol-4-yl)quinoline-4-carboxamide]	251 ± 28.3
CCN(CC)CCNC(=O)c1cc(-c2ccnn2C)nc2ccccc12 [Compound 6c, N-[2-(diethylamino)ethyl]-2-(1-methyl-1H-pyrazol-5-yl)quinoline-4-carboxamide]	133 ± 28.7
CCN(CC)CCNC(=O)c1cc(-c2c(C)noc2C)nc2ccccc12 [Compound 6h, N-[2-(diethylamino)ethyl]-2-(3,5-dimethyl-1,2-oxazol-4-yl)quinoline-4-carboxamide]	129 ± 67.2
CCN(CC)CCNC(=O)c1cc(-c2ccncc2)nc2ccccc12 [Compound 6i, N-[2-(diethylamino)ethyl]-2-(pyridin-4-yl)quinoline-4-carboxamide]	174 ± 55.6
CCN(CC)CCNC(=O)c1cc(-c2ccccc2OC)nc2ccccc12 [Compound 6k, N-[2-(diethylamino)ethyl]-2-(2-methoxyphenyl)quinoline-4-carboxamide]	75.9 ± 6.4
CCN(CC)CCNC(=O)c1cc(-c2ccc(COC)cc2)nc2ccccc12 [Compound 6n, N-[2-(diethylamino)ethyl]-2-[4-(methoxymethyl)phenyl]quinoline-4-carboxamide]	46.6 ± 2.4
CCN(CC)CCNC(=O)c1cc(-c2ccc(CN3CCOCC3)cc2)nc2ccccc12 [Compound 6o, N-[2-(diethylamino)ethyl]-2-{4-[(morpholin-4-yl)methyl]phenyl}quinoline-4-carboxamide]	79.2 ± 8
CCN(CC)CCNC(=O)c1cc(-c2cnc(N(C)C)nc2)nc2ccccc12 [Compound 6p, N-[2-(diethylamino)ethyl]-2-[2-(dimethylamino)pyrimidin-5-yl]quinoline-4-carboxamide]	74.2 ± 7

SMILES	CC50 [µM]
CCN(CC)CCNC(=O)c1cc(-c2cnc(OC)nc2)nc2ccccc12 [Compound 6q, N-[2-(diethylamino)ethyl]-2-(2-methoxypyrimidin-5-yl)quinoline-4-carboxamide]	174 ± 20.3
CCN(CC)CCNC(=O)c1cc(-c2ccc3c(c2)OCCO3)nc2ccccc12 [Compound 6t, N-[2-(diethylamino)ethyl]-2-(2,3-dihydro-1,4-benzodioxin-6-yl)quinoline-4-carboxamide]	49.9 ± 13.8
CCN(CC)CCNC(=O)c1cc(-c2ccc(-c3ccccc3)cc2)nc2ccccc12 [Compound 6u, 2-{[1,1′-biphenyl]-4-yl}-N-[2-(diethylamino)ethyl]quinoline-4-carboxamide]	9.8 ± 0.5
CC(C)Oc1cc(C(=O)NCCN(C)C)c2ccccc2n1 [Compound 8a, N-[2-(dimethylamino)ethyl]-2-(propan-2-yloxy)quinoline-4-carboxamide]	38.5 ± 1.5
CC(C)Oc1cc(C(=O)NCCN)c2ccccc2n1 [Compound 8b, N-(2-aminoethyl)-2-(propan-2-yloxy)quinoline-4-carboxamide]	149 ± 15.3
CC(C)Oc1cc(C(=O)NCCCN(C)C)c2ccccc2n1 [Compound 8c, N-[3-(dimethylamino)propyl]-2-(propan-2-yloxy)quinoline-4-carboxamide]	122 ± 39.2
CC(C)Oc1cc(C(=O)NCCN2CCOCC2)c2ccccc2n1 [Compound 8d, N-[2-(morpholin-4-yl)ethyl]-2-(propan-2-yloxy)quinoline-4-carboxamide]	> 250
CC(C)Oc1cc(C(=O)NCCN2CCCC2)c2ccccc2n1 [Compound 8e, 2-(propan-2-yloxy)-N-[2-(pyrrolidin-1-yl)ethyl]quinoline-4-carboxamide]	36.9 ± 20.1
CC(C)Oc1cc(C(=O)NCCN2CCN(C)CC2)c2ccccc2n1 [Compound 8f, N-[2-(4-methylpiperazin-1-yl)ethyl]-2-(propan-2-yloxy)quinoline-4-carboxamide]	88.8 ± 21.5
CC(C)Oc1cc(C(=O)NC2CCN(C)CC2)c2ccccc2n1 [Compound 8g, N-(1-methylpiperidin-4-yl)-2-(propan-2-yloxy)quinoline-4-carboxamide]	101 ± 8.8
CCN(CC)CCCNC(=O)c1cc(-c2ccccc2)nc2ccccc12 [Compound 10b, N-[3-(diethylamino)propyl]-2-phenylquinoline-4-carboxamide]	45.4 ± 14
NNC(=O)c1cc(-c2ccccc2)nc2ccccc12 [Compound 10d, 2-phenylquinoline-4-carbohydrazide]	> 300
N=C(N)NC(=O)c1cc(-c2ccccc2)nc2ccccc12 [Compound 10e, N-carbamimidoyl-2-phenylquinoline-4-carboxamide]	> 250
CN(C)c1ccc(NC(=O)c2cc(-c3ccccc3)nc3ccccc23)cc1 [Compound 10f, N-[4-(dimethylamino)phenyl]-2-phenylquinoline-4-carboxamide]	> 350
O=C(NCCN1CCCC1)c1cc(-c2ccccc2)nc2ccccc12 [Compound 10g, 2-phenyl-N-[2-(pyrrolidin-1-yl)ethyl]quinoline-4-carboxamide]	46.7 ± 8.3
CN(C)CCCNC(=O)c1cc(-c2ccccc2)nc2ccccc12 [Compound 10h, N-[3-(dimethylamino)propyl]-2-phenylquinoline-4-carboxamide]	44.9 ± 17.7
CN(C)CCCNC(=O)c1cc(-c2cccs2)nc2ccccc12 [Compound 12b, N-[3-(dimethylamino)propyl]-2-(thiophen-2-yl)quinoline-4-carboxamide]	40.5 ± 14
O=C(NCCCn1ccnc1)c1cc(-c2cccs2)nc2ccccc12 [Compound 12d, N-[3-(1H-imidazol-1-yl)propyl]-2-(thiophen-2-yl)quinoline-4-carboxamide]	55.7 ± 3.5

same assay, conditions: Table 6; RD cells

SMILES	CC50 [µM]
CN(C)CCNC(=O)c1cc(-c2ccccc2)nc2ccc(Cl)cc12 [Compound 15a, 6-chloro-N-[2-(dimethylamino)ethyl]-2-phenylquinoline-4-carboxamide]	14.3 ± 0.8
CCN(CC)CCNC(=O)c1cc(-c2ccccc2)nc2ccc(Cl)cc12 [Compound 15b, 6-chloro-N-[2-(diethylamino)ethyl]-2-phenylquinoline-4-carboxamide]	13.5 ± 8.1
COc1ccc2nc(-c3ccccc3)cc(C(=O)NCCN(C)C)c2c1 [Compound 15c, N-[2-(dimethylamino)ethyl]-6-methoxy-2-phenylquinoline-4-carboxamide]	31.8 ± 1.3
CCN(CC)CCNC(=O)c1cc(-c2ccccc2)nc2ccc(OC)cc12 [Compound 15d, N-[2-(diethylamino)ethyl]-6-methoxy-2-phenylquinoline-4-carboxamide]	27.5 ± 7.3
CN(C)CCNC(=O)c1cc(-c2ccccc2)nc2ccc(F)cc12 [Compound 19a, N-[2-(dimethylamino)ethyl]-6-fluoro-2-phenylquinoline-4-carboxamide]	38.8 ± 19
CCN(CC)CCNC(=O)c1cc(-c2ccccc2)nc2ccc(F)cc12 [Compound 19b, N-[2-(diethylamino)ethyl]-6-fluoro-2-phenylquinoline-4-carboxamide]	24.9 ± 1.5
